Patent publication US4931569A, “Purification of stable water-soluble dioxetanes” (Tropix, Inc., priority 1988, dated 1990)
Structures can show the parent of a compound that is named as a salt.

Tests used:
[1] = stability of the dioxetane in solution or after lyophilization, followed by analytical HPLC; format: physicochemical
Procedure: Peak fractions from FIG. 3C were combined, lyophilized, then analyzed by analytical HPLC on a reversed phase PLRP-S analytical column with a gradient of acetonitrile in 0.1% NaHCO3 buffer, pH 8.6, as the mobile phase.
The AMPPD fraction from FIG. 4 was collected, freeze-dried, then fractionated on an analytical size column of Dynamax C-18 using as the mobile phase a gradient of acetonitrile in 0.1% ammonium acetate, pH 7.0.
The 6 minute AMPPD peak from FIG. 4, which eluted with 31% acetonitrile in 0.1% ammonium acetate buffer, pH 7.0, was stored overnight in this solution without concentration, then chromatographed by HPLC on an analytical Dynamax C-18 column in a gradient of acetonitrile in 0.1% ammonium acetate buffer, pH 7.0 (FIG. 6).
When, however, AMPPD in the 6-minute peak from preparative HPLC (FIG. 4) was stored in the presence of the ammonium acetate column effluent for long periods of time at 4° C.

alkaline phosphatase = alkaline phosphatase chemiluminescence assay (light emission, Turner 20E Luminometer; sensitivity plot); format: biochemical; conditions: for light emission upon reaction with alkaline phosphatase: peaks collected from preparative HPLC (FIG. 1), lyophilized, tested as substrate, FIG. 2
Text: Another such method involves testing the 1,2-dioxetane derivative as a substrate for an enzyme in a chemiluminescence assay (see for example, Example 2 infra), and comparing its behavior to that of an authentic sample of highly pure substrate in the same assay. The light intensity produced per unit amount of the substrate is directly proportional to the degree of purity of the substrate, when compared to the light intensity produced by the highly pure sample. When the light intensity produced from pure and impure substrate is plotted as a function of the molar concentration of the biochemical analyte, a family of parallel sigmoid curves is produced; this is called a sensitivity plot. The sensitivity curve for an impure sample will be shifted to the right of the curve for a pure sample; that is, the assay is less sensitive when using the impure sample. The greater the degree of impurity, the greater the shift of the sensitivity curve to the right. Purification of the crude reaction products of the chemical syntheses of the chemiluminescent, water-soluble 1,2 dioxetane derivatives by the methods of this invention will increase the sensitivity of the assay using the dioxetane product by at least 2-fold, preferably about 10-fold (see Example 6, FIG. 9).
The breakdown product and the AMPPD from FIG. 1 were collected, dried by lyophilization, then tested as a substrate for alkaline phosphatase in a chemiluminescence assay. The details of this assay are provided in copending U S. Pat. Application Ser. No. 889,823, which is incorporated herein by reference to the extent that it discloses assay conditions for alkaline phosphatase. Light emission was determined in a Turner 20E Luminometer.
The alkaline phosphatase chemiluminescent assay was applied to a relatively crude sample of AMPPD from Example 4, FIG. 5, and to an HPLC purified sample of AMPPD from Example 3, FIG. 3D. Light intensity produced in the chemiluminescent assay was plotted as a function of the molar concentration of alkaline phosphatase in the assay mixture (FIG. 9).

Structure (SMILES) | stability on brief (overnight) storage in ammonium acetate buffer ([1]; 31% acetonitrile in 0.1% ammonium acetate buffer, pH 7.0, without concentration, FIG. 6) | stability in water ([1]; desalted and non-desalted preparations, analytical HPLC on PLRP-S, FIG. 3D) | stability after lyophilization in the presence of ammonium ions ([1]; freeze-dried from 0.1% ammonium acetate buffer, pH 7.0, analytical HPLC on Dynamax C-18, FIG. 5) | stability on long-term storage in ammonium acetate column effluent ([1]; long periods of time at 4° C. in the dark, analytical HPLC on Dynamax C18, FIG. 7) | sensitivity of the chemiluminescent assay relative to crude AMPPD (alkaline phosphatase; HPLC purified sample (FIG. 3D) vs crude sample (FIG. 5), at all concentrations of alkaline phosphatase, FIG. 9) | light emission upon reaction with alkaline phosphatase (alkaline phosphatase) | lowest concentration of alkaline phosphatase that could be detected (alkaline phosphatase; with purified AMPPD as substrate)
COC1(c2cccc(OP(=O)(O)O)c2)OOC12C1CC3CC(C1)CC2C3 (centres unmarked) [AMPPD, 3-(2'-spiroadamantane)-4-methoxy-4-(3"-phosphoryloxy)phenyl-1,2-dioxetane disodium salt] | did not lead to significant breakdown | stable for long periods | unstable | increased breakdown | at least an order of magnitude greater | typical of AMPPD | about 10^-15 M
COC(=O)c1cccc(OP(=O)(O)O)c1 [Breakdown Product] | – | – | – | – | – | no light emission | –
